For one assay, the target named is T1, hNotch1ICD (Homo sapiens, UniProt P46531).
T1 construct: pLV[Tet]-Puro-TRE3G>Notch1-ICD; expressed in transfected cells; host or cells: 293A cells
The assay can be described thus: Notch1 Reporter Assay (Dox-inducible Notch1-ICD, CSL-responsive luciferase in 293A cells). It is filed as cell-based. The procedure:
293A cells expressing 1) pCMV-Tet-On 3G, 2) pLV[Tet]-Puro-TRE3G>Notch1-ICD, 3) pLV[Tet]-Puro-TRE3G>Notch2-ICD, 4) pLV[Tet]-Puro-TRE3G>Notch3-ICD, and 5) pCSL-RElement-Luc were used. When Doxycycline is added, the Tet-ON gene activates expression of hNotch1ICD, which together with endogenous NTC components binds to CSL responsive elements (pCSL-RElement-Luc) and expresses luciferase. 1 ×× 10^4 cells are plated in 100 µL (96-well format). 24 h later, compounds (10 mM stock in DMSO) are diluted in DMSO to 200X, then added (5 ul into 1 mL) to cell culture media containing 50 ng/mL Dox. This is then added 1:1 to cells. Final DMSO = 0.25%, Dox = 25 ng/mL. After 24 h, media is discarded, and cells are lysed in passive lysis buffer (Promega). Cells are rocked at room temperature for 15 min and then lysate is divided for luciferase assay (Luciferase Assay System, Promega) and cell viability (CellTiter Glo 2.0, Promega). Raw luciferase is normalized to cell viability, and then scaled to DMSO wells. Results are analyzed and IC50′s are determined in GraphPad by nonlinear regression curve fitting (4 parameter) of dose response curves.
(In general: Reporter assays use an easily measured gene product as a stand-in for the process of interest.)

The subject of assay [1] is OE33 Esophageal Adenocarcinoma cell line. The assay can be described thus: OE33 Colony Formation Assay. It is filed as cell-based. The following applies: OE33 cells, 200 cells/well, 7 days, CellTiter-Glo. On the procedure: OE33 Colony Formation Assay
The OE33 Esophageal Adenocarcinoma cell line was cultured and plated into 96-well tissue culture plates under sparse conditions (200 cells/well). Test compounds were serially diluted in DMSO and then into culture media (final DMSO concentration = 0.1%). Compound/media was then added to cells every 48 hours for a total of 7 days. Clonogenic growth was assessed using the CellTiter-Glo reagent, according to manufacturer (Promega) specifications. Percent inhibition was calculated as the percent of luminescence normalized to control (0.1% DMSO) wells. Nonlinear regression curve fitting was performed using GraphPad Prism software to determine EC50′s.
On the technique in general: In ATP-based viability assays light output follows the ATP content of the culture.

Where [2] appears, read: 293A cells, 24 h, luciferase normalized to cell viability, read-out: Notch1 Reporter Assay IC50.
Setting [3] is: value printed in the synthesis heading of the compound, read-out: Notch1 Reporter Assay IC50.

Each structure is given as a SMILES string. Structures can show the parent of a compound that is named as a salt. Where two headings read alike, the source gives them in different places.

T1 sequence (P46531 1754-2555 limits assumed): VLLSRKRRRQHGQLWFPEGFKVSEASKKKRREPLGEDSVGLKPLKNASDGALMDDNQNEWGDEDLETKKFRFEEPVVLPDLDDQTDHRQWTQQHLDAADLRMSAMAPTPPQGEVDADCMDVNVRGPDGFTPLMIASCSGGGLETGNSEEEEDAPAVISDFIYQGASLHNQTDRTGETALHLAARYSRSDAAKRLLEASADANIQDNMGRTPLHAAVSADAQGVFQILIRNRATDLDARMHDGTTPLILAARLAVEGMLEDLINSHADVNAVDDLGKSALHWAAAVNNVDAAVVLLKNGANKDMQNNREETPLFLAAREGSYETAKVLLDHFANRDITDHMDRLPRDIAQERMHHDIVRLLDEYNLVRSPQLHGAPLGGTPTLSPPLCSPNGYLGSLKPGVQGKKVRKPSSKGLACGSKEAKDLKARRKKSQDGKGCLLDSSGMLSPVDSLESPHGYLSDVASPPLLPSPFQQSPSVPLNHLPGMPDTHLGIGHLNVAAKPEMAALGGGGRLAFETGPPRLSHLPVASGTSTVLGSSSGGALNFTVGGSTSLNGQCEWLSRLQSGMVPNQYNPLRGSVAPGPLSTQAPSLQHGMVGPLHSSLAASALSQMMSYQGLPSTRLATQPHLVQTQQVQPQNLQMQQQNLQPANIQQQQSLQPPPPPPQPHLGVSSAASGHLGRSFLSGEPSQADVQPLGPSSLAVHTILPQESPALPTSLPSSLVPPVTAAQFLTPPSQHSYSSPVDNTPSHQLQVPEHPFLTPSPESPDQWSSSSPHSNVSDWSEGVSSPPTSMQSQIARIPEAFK

`CC(C)Cn1c(=O)c(C(=O)Nc2ccccc2N2CCN(C)CC2)c(O)c2ccccc21` [568(02)]: at hNotch1ICD (setting [2]), the IC50 (as a rule, the midpoint of a concentration-inhibition curve) worked out at 6.8 µM. Moreover, in assay [1] (Homo sapiens, OE33, 168 h), the 50% effective concentration (EC50) (usually the midpoint of the concentration-response curve) stood at 2.6 µM. As for `CC(C)Cn1c(=O)c(C(=O)Nc2ccc(N3CCN(C)CC3)cc2)c(O)c2ccccc21` [569(02)], at hNotch1ICD (setting [2]), the IC50 is 4.9 µM. The EC50 in assay [1] (Homo sapiens, OE33, 168 h) amounted to 1.8 µM. The like results for `CC(C)Cn1c(=O)c(C(=O)Nc2ccc(F)cc2N2CCN(C)CC2)c(O)c2ccccc21` [570(02)] were, in that order, 5.6 µM and 2 µM.

`CC(C)Cn1c(=O)c(C(=O)Nc2cc(F)ccc2N2CCN(C)CC2)c(O)c2ccccc21` [571(02)]: the IC50 at hNotch1ICD (setting [2]) was 7.9 µM. Further, in assay [1] (Homo sapiens, OE33, 168 h), the 50% effective concentration (EC50) stood at 2.5 µM. As for `CC(C)Cn1c(=O)c(C(=O)Nc2ccc(N3CCN(C)CC3)c(F)c2)c(O)c2ccccc21` [572(02)], a half-maximal response in assay [1] (Homo sapiens, OE33, 168 h) (EC50) required 2.2 µM. As for `CC(C)Cn1c(=O)c(C(=O)Nc2cccc(F)c2)c(O)c2cc(N3CCN(C)CC3)ccc21` [577(02)], at hNotch1ICD (setting [2]), the IC50 is 6.4 µM. Further, the EC50 in assay [1] (Homo sapiens, OE33, 168 h) was determined as 0.66 µM. Consider `CC(C)Cn1c(=O)c(C(=O)Nc2cc(F)c(N3CCN(C)CC3)c(F)c2)c(O)c2ccccc21` [582(02)], for which, on hNotch1ICD (setting [2]), the IC50 came out at 1.9 µM. For the same compound, the EC50 in assay [1] (Homo sapiens, OE33, 168 h) came out at 1.1 µM. The like results for `CC(C)Cn1c(=O)c(C(=O)Nc2ccc(F)c(N3CCN(C)CC3)c2)c(O)c2ccccc21` [584(02)] were, in that order, 6 µM and 2 µM. `Cc1cccnc1NC(=O)c1c(O)c2ccccc2n(Cc2ccccc2)c1=O` [SSTN-408] showed a concentration for a half-maximal effect (EC50) in assay [1] (listed as 408) of 3.7 µM. In assay [1] (listed as 452), `Cc1cccnc1NC(=O)c1c(O)c2ccccc2n(Cc2ccccc2)c1=O` [SSTN-452] showed an EC50 of 1.6 µM.

With `CC(C)Cn1c(=O)c(C(=O)Nc2ccc(F)c(N3CCN(C)CC3)c2)c(O)c2ccccc21` [SSTN-584_Formate salt, N-(4-fluoro-3-(4-methylpiperazin-1-yl)phenyl)-4-hydroxy-1-isobutyl-2-oxo-1,2-dihydroquinoline-3-carboxamide formate salt], at hNotch1ICD (setting [3]), the IC50 is 4.54 µM. On the same count and under the same terms, to `CC(C)Cn1c(=O)c(C(=O)Nc2ccc(F)c(N3CCN(C)CC3)c2)c(O)c2ccccc21` [SSTN-584_HCl salt, N-(4-fluoro-3-(4-methylpiperazin-1-yl)phenyl)-4-hydroxy-1-isobutyl-2-oxo-1,2-dihydroquinoline-3-carboxamide hydrochloride salt] belongs 6.04 µM. On the same count and under the same terms, for `CC(C)Cn1c(=O)c(C(=O)Nc2cccc(F)c2)c(O)c2c(N3CCN(C)CC3)cccc21` [SSTN-588, N-(3-fluorophenyl)-4-hydroxy-1-isobutyl-5-(4-methylpiperazin-1-yl)-2-oxo-1,2-dihydroquinoline-3-carboxamide] the value was 10.3 µM; for `CC(C)Cn1c(=O)c(C(=O)Nc2cccc(F)c2)c(O)c2c(N3CCN(C)CC3)cccc21` [SSTN-588_HCl salt, N-(3-fluorophenyl)-4-hydroxy-1-isobutyl-5-(4-methylpiperazin-1-yl)-2-oxo-1,2-dihydroquinoline-3-carboxamide hydrochloride salt], 9.8 µM. As to `Cc1cccnc1NC(=O)c1c(O)c2ccccc2n(CC(C)C)c1=O` [compound 513, 4-hydroxy-1-isobutyl-N-(3-methylpyridin-2-yl)-2-oxo-1,2-dihydroquinoline-3-carboxamide], at hNotch1ICD (setting [2]), the 50% inhibitory concentration (IC50) came to 11.1 µM. Still for that read-out and setting: for `COc1ccc2c(c1)c(O)c(C(=O)Nc1ncccc1C)c(=O)n2CC(C)C` [compound 514, 4-hydroxy-1-isobutyl-6-methoxy-N-(3-methylpyridin-2-yl)-2-oxo-1,2-dihydroquinoline-3-carboxamide] the value was 13.6 µM.

On hNotch1ICD (Notch1 Reporter Assay IC50, µM, 293A cells, 24 h, luciferase normalized to cell viability), `Cc1cc(NC(=O)c2c(O)c3ccccc3n(CC(C)C)c2=O)on1` [compound 517, 4-hydroxy-1-isobutyl-N-(3-methylisoxazol-5-yl)-2-oxo-1,2-dihydroquinoline-3-carboxamide] registered an IC50 of 22.6 µM. With `CC(C)Cn1c(=O)c(C(=O)Nc2ccccn2)c(O)c2ccccc21` [compound 518, 4-hydroxy-1-isobutyl-2-oxo-N-(pyridin-2-yl)-1,2-dihydroquinoline-3-carboxamide], at hNotch1ICD (setting [2]), the concentration for half-maximal inhibition (IC50) amounted to 18.7 µM. Same read-out and setting: for `CC(C)Cn1c(=O)c(C(=O)Nc2ncccc2O)c(O)c2ccccc21` [compound 519, 4-hydroxy-N-(3-hydroxypyridin-2-yl)-1-isobutyl-2-oxo-1,2-dihydroquinoline-3-carboxamide] the value was 17.8 µM; for `CC(C)Cn1c(=O)c(C(=O)Nc2cc(Cl)ccn2)c(O)c2ccccc21` [compound 526, N-(4-chloropyridin-2-yl)-4-hydroxy-1-isobutyl-2-oxo-1,2-dihydroquinoline-3-carboxamide], 20.3 µM; for `CC(C)Cn1c(=O)c(C(=O)Nc2cc(N3CCOCC3)ccn2)c(O)c2ccccc21` [compound 527, 4-hydroxy-1-isobutyl-N-(4-morpholinopyridin-2-yl)-2-oxo-1,2-dihydroquinoline-3-carboxamide], 8.5 µM. The same measure, in the same setting: for `CC(C)Cn1c(=O)c(C(=O)Nc2ncco2)c(O)c2ccccc21` [compound 528, 4-hydroxy-1-isobutyl-N-(oxazol-2-yl)-2-oxo-1,2-dihydroquinoline-3-carboxamide] the value was 14.3 µM; for `COc1ccnc(NC(=O)c2c(O)c3ccccc3n(CC(C)C)c2=O)c1` [compound 532, 4-hydroxy-1-isobutyl-N-(4-methoxypyridin-2-yl)-2-oxo-1,2-dihydroquinoline-3-carboxamide], 12.4 µM; for `CC(C)Cn1c(=O)c(C(=O)Nc2ccn(C)n2)c(O)c2ccccc21` [compound 533, 4-hydroxy-1-isobutyl-N-(1-methyl-1H-pyrazol-3-yl)-2-oxo-1,2-dihydroquinoline-3-carboxamide], 22.5 µM. Still for that read-out and setting: to `Cc1ccccc1NC(=O)c1c(O)c2ccccc2n(CC(C)C)c1=O` [compound 535, 4-hydroxy-1-isobutyl-2-oxo-N-(o-tolyl)-1,2-dihydroquinoline-3-carboxamide] belongs 5.9 µM; to `CC(C)Cn1c(=O)c(C(=O)Nc2ccccc2F)c(O)c2ccccc21` [compound 537, N-(2-fluorophenyl)-4-hydroxy-1-isobutyl-2-oxo-1,2-dihydroquinoline-3-carboxamide], 5.1 µM. For the compound `CC(C)Cn1c(=O)c(C(=O)Nc2ccc(F)cc2)c(O)c2ccccc21` [compound 539, N-(4-fluorophenyl)-4-hydroxy-1-isobutyl-2-oxo-1,2-dihydroquinoline-3-carboxamide], the half-inhibitory concentration (IC50) on hNotch1ICD (setting [2]) turned out to be 6.6 µM. With `Cc1ncccc1NC(=O)c1c(O)c2ccccc2n(CC(C)C)c1=O` [compound 540, 4-hydroxy-1-isobutyl-N-(2-methylpyridin-3-yl)-2-oxo-1,2-dihydroquinoline-3-carboxamide], the IC50 at hNotch1ICD (setting [2]) turned out to be 18.5 µM. On the same count and under the same terms, to `CC(C)Cn1c(=O)c(C(=O)NCc2ccco2)c(O)c2ccccc21` [compound 541, N-(furan-2-ylmethyl)-4-hydroxy-1-isobutyl-2-oxo-1,2-dihydroquinoline-3-carboxamide] belongs 15.1 µM; to `Cc1cc(NC(=O)c2c(O)c3ccccc3n(CC(C)C)c2=O)n[nH]1` [compound 549, 4-hydroxy-1-isobutyl-N-(5-methyl-1H-pyrazol-3-yl)-2-oxo-1,2-dihydroquinoline-3-carboxamide], 10.1 µM. Same read-out and setting: for `Cc1ccncc1NC(=O)c1c(O)c2ccccc2n(CC(C)C)c1=O` [compound 550, 4-hydroxy-1-isobutyl-N-(4-methylpyridin-3-yl)-2-oxo-1,2-dihydroquinoline-3-carboxamide] the value was 20.8 µM; for `Cc1cnccc1NC(=O)c1c(O)c2ccccc2n(CC(C)C)c1=O` [compound 551, 4-hydroxy-1-isobutyl-N-(3-methylpyridin-4-yl)-2-oxo-1,2-dihydroquinoline-3-carboxamide], 6.7 µM; for `CC(C)Cn1c(=O)c(C(=O)Nc2cccc(N3CCOCC3)c2)c(O)c2ccccc21` [compound 554, 4-hydroxy-1-isobutyl-N-(3-morpholinophenyl)-2-oxo-1,2-dihydroquinoline-3-carboxamide], 4.3 µM. Still for that read-out and setting: to `Cc1cccnc1NC(=O)c1c(O)c2c(Br)cccc2n(CC(C)C)c1=O` [compound 563, 5-bromo-4-hydroxy-1-isobutyl-N-(3-methylpyridin-2-yl)-2-oxo-1,2-dihydroquinoline-3-carboxamide] belongs 8 µM.

These data come from US20230203003A1, “Notch Inhibitors and Uses Thereof” (StemSynergy Therapeutics, Inc., priority 2020, published 2023).
